Experimental data taken from the CheMixHub viscosity set.

Test: xn = mol fraction of the nth substance listed

O=C1CCCCC1 + CCCCCC
viscosity [mPa·s]
Settings | 298.15 K | 303.15 K | 308.15 K
101 kPa, x1 = 0.0863 | 0.364 | – | –
101 kPa, x1 = 0.2109 | 0.421 | – | –
101 kPa, x1 = 0.3038 | 0.474 | – | –
101 kPa, x1 = 0.4007 | 0.542 | – | –
101 kPa, x1 = 0.463 | 0.598 | – | –
101 kPa, x1 = 0.6023 | 0.773 | – | –
101 kPa, x1 = 0.6701 | 0.833 | – | –
101 kPa, x1 = 0.7991 | 1.185 | – | –
101 kPa, x1 = 0.872 | 1.398 | – | –
101.33 kPa, x1 = 0.1011 | 0.335 | 0.318 | 0.305
101.33 kPa, x1 = 0.2012 | 0.381 | 0.361 | 0.343
101.33 kPa, x1 = 0.3052 | 0.445 | 0.418 | 0.396
101.33 kPa, x1 = 0.4029 | 0.514 | 0.483 | 0.458
101.33 kPa, x1 = 0.5011 | 0.607 | 0.57 | 0.537
101.33 kPa, x1 = 0.6043 | 0.732 | 0.684 | 0.641
101.33 kPa, x1 = 0.7032 | 0.898 | 0.834 | 0.779
101.33 kPa, x1 = 0.8003 | 1.131 | 1.033 | 0.961
101.33 kPa, x1 = 0.8989 | 1.441 | 1.322 | 1.22

CC(=O)CC(C)C + CCCCCCC
298.15 K, 101 kPa
Settings | viscosity [mPa·s]
x1 = 0.1142 | 0.39
x1 = 0.2052 | 0.397
x1 = 0.3088 | 0.407
x1 = 0.4417 | 0.424
x1 = 0.5341 | 0.438
x1 = 0.6443 | 0.458
x1 = 0.7444 | 0.478
x1 = 0.8854 | 0.511

CC(C)CC(C)(C)C + CCCCCCC
101 kPa
Settings | viscosity [mPa·s]
293.15 K, x1 = 0.6 | 0.454
293.15 K, x1 = 0.8 | 0.473
298.15 K, x1 = 0.1802 | 0.4055
298.15 K, x1 = 0.2943 | 0.4133
298.15 K, x1 = 0.3739 | 0.4193
298.15 K, x1 = 0.4883 | 0.4269
298.15 K, x1 = 0.5806 | 0.4357
298.15 K, x1 = 0.6254 | 0.4399
298.15 K, x1 = 0.7244 | 0.4491
298.15 K, x1 = 0.799 | 0.4562
298.15 K, x1 = 0.8649 | 0.461
298.15 K, x1 = 0.9217 | 0.4665
298.15 K, x1 = 0.9641 | 0.4743
313.15 K, x1 = 0.2 | 0.343
313.15 K, x1 = 0.4 | 0.354
313.15 K, x1 = 0.6 | 0.366
313.15 K, x1 = 0.8 | 0.38

CCCCCCO + CCCCCCC
viscosity [mPa·s], 101.33 kPa
Settings | x1 = 0.0567 | x1 = 0.1134 | x1 = 0.2217 | x1 = 0.3279 | x1 = 0.4307 | x1 = 0.5294 | x1 = 0.6292 | x1 = 0.7248 | x1 = 0.8643 | x1 = 0.9526
298.15 K | 0.4405 | 0.4541 | 0.5473 | 0.6831 | 0.8745 | 1.142 | 1.523 | 2.047 | 2.93 | 3.788
308.15 K | 0.396 | 0.4021 | 0.4788 | 0.5863 | 0.7378 | 0.9541 | 1.201 | 1.574 | 2.299 | 2.921

O=C1CCCCC1 + CCCCCCC
viscosity [mPa·s]
Settings | 298.15 K | 303.15 K | 308.15 K
101 kPa, x1 = 0.1125 | 0.437 | – | –
101 kPa, x1 = 0.2097 | 0.484 | – | –
101 kPa, x1 = 0.3055 | 0.539 | – | –
101 kPa, x1 = 0.4144 | 0.616 | – | –
101 kPa, x1 = 0.5033 | 0.702 | – | –
101 kPa, x1 = 0.5928 | 0.803 | – | –
101 kPa, x1 = 0.7027 | 0.97 | – | –
101 kPa, x1 = 0.8091 | 1.184 | – | –
101 kPa, x1 = 0.8686 | 1.34 | – | –
101.33 kPa, x1 = 0.1046 | 0.427 | 0.403 | 0.384
101.33 kPa, x1 = 0.2024 | 0.472 | 0.445 | 0.421
101.33 kPa, x1 = 0.3035 | 0.529 | 0.497 | 0.47
101.33 kPa, x1 = 0.4016 | 0.606 | 0.564 | 0.53
101.33 kPa, x1 = 0.5025 | 0.69 | 0.644 | 0.605
101.33 kPa, x1 = 0.5993 | 0.805 | 0.75 | 0.701
101.33 kPa, x1 = 0.7026 | 0.96 | 0.893 | 0.828
101.33 kPa, x1 = 0.8009 | 1.178 | 1.085 | 1.004
101.33 kPa, x1 = 0.9009 | 1.474 | 1.349 | 1.235

CC(C)CC(C)(C)C + CCCCCCCC
viscosity [mPa·s]
Settings | x1 = 0.2 | x1 = 0.4 | x1 = 0.5 | x1 = 0.6 | x1 = 0.8
293.15 K, 101 kPa | 0.528 | 0.519 | – | 0.51 | 0.503
298.2 K, 100 kPa | – | – | 0.4882 | – | –
313.15 K, 101 kPa | 0.421 | 0.415 | – | 0.408 | 0.403

CCCCCCO + CCCCCCCC
viscosity [mPa·s]
Settings | 293.15 K | 298.15 K | 303.15 K | 308.15 K | 313.15 K
100 kPa, x2 = 0.0423 | 4.68 | 4.014 | 3.464 | 3.004 | 2.618
100 kPa, x2 = 0.0824 | 4.117 | 3.546 | 3.072 | 2.675 | 2.34
100 kPa, x2 = 0.1636 | 3.198 | 2.775 | 2.423 | 2.126 | 1.876
100 kPa, x2 = 0.2691 | 2.319 | 2.037 | 1.8 | 1.599 | 1.426
100 kPa, x2 = 0.3407 | 1.877 | 1.663 | 1.482 | 1.327 | 1.193
100 kPa, x2 = 0.3897 | 1.634 | 1.457 | 1.306 | 1.176 | 1.064
100 kPa, x2 = 0.4731 | 1.303 | 1.176 | 1.065 | 0.969 | 0.884
100 kPa, x2 = 0.5241 | 1.148 | 1.043 | 0.95 | 0.869 | 0.797
100 kPa, x2 = 0.5779 | 1.011 | 0.925 | 0.848 | 0.779 | 0.718
100 kPa, x2 = 0.6611 | 0.851 | 0.785 | 0.725 | 0.671 | 0.622
100 kPa, x2 = 0.753 | 0.719 | 0.667 | 0.62 | 0.577 | 0.537
100 kPa, x2 = 0.8903 | 0.582 | 0.543 | 0.508 | 0.475 | 0.445
100 kPa, x2 = 0.9572 | 0.533 | 0.502 | 0.468 | 0.438 | 0.411
100 kPa, x2 = 0.9715 | 0.524 | 0.491 | 0.461 | 0.432 | 0.406
101.33 kPa, x2 = 0.051 | – | 4.054 | – | – | –
101.33 kPa, x2 = 0.1118 | – | 3.29 | – | – | –
101.33 kPa, x2 = 0.1835 | – | 2.593 | – | – | –
101.33 kPa, x2 = 0.3569 | – | 1.552 | – | – | –
101.33 kPa, x2 = 0.5094 | – | 1.074 | – | – | –
101.33 kPa, x2 = 0.5642 | – | 0.955 | – | – | –
101.33 kPa, x2 = 0.6167 | – | 0.857 | – | – | –
101.33 kPa, x2 = 0.6701 | – | 0.77 | – | – | –
101.33 kPa, x2 = 0.7288 | – | 0.686 | – | – | –
101.33 kPa, x2 = 0.8387 | – | 0.566 | – | – | –
101.33 kPa, x2 = 0.937 | – | 0.511 | – | – | –

O=C1CCCCC1 + CCCCCCCC
viscosity [mPa·s]
Settings | 298.15 K | 303.15 K | 308.15 K
101 kPa, x2 = 0.0833 | 1.59 | – | –
101 kPa, x2 = 0.1727 | 1.31 | – | –
101 kPa, x2 = 0.3177 | 1.023 | – | –
101 kPa, x2 = 0.4682 | 0.829 | – | –
101 kPa, x2 = 0.6244 | 0.693 | – | –
101 kPa, x2 = 0.7825 | 0.602 | – | –
101 kPa, x2 = 0.8935 | 0.55 | – | –
101.33 kPa, x1 = 0.0981 | 0.537 | 0.505 | 0.479
101.33 kPa, x1 = 0.2053 | 0.583 | 0.547 | 0.516
101.33 kPa, x1 = 0.3022 | 0.635 | 0.595 | 0.559
101.33 kPa, x1 = 0.4042 | 0.706 | 0.658 | 0.618
101.33 kPa, x1 = 0.5032 | 0.787 | 0.733 | 0.686
101.33 kPa, x1 = 0.603 | 0.895 | 0.831 | 0.774
101.33 kPa, x1 = 0.7025 | 1.039 | 0.96 | 0.894
101.33 kPa, x1 = 0.8021 | 1.264 | 1.165 | 1.054
101.33 kPa, x1 = 0.8984 | 1.508 | 1.38 | 1.271
